Experimental data from US11993578B2, “Pyrazole-3-carboxylic acid amide derivative and pest control agent” (KUMIAI CHEMICAL INDUSTRY CO., LTD., priority 2017, dated 2024).

What follows are compounds tested on Aphis gossypii (assay: Aphis gossypii killing test (Test Example 3)). Conditions: 72 h, 500 ppm active ingredient, cucumber nursery plant with nymphs dipped, after 3 days, 25° C., read-out: percentage of dead insects.
Assay type: in vivo
Method: [formula] The water-dispersible powder prepared in accordance with Formulation example 2 was diluted in water so that the concentration of the active ingredient was 500 ppm. A nursery plant of cucumber preliminarily inoculated with nymphs of Aphis gossypii was dipped in this liquid agent, and air-dried. The nursery plant of cucumber after the treatment was placed in a thermostatic chamber at 25° C., and the number of live insects was counted after 3 days, and the percentage of dead insects was determined by the calculation formula of numerical formula 1. The test was conducted singly.

Compound | pest or weed control at 500 ppm [%]
NC(=O)c1nn(-c2cccnc2)cc1O [Compound A-0001, 4-hydroxy-1-(pyridine-3-yl)-1H-pyrazole-3-carboxamide] | ≥ 50
CC(C)C(=O)NC(=O)c1nn(-c2cccnc2)cc1OC(F)(F)C(F)OC(F)(F)F (centres unmarked) [Compound A-2403, N-isobutyryl-1-(pyridine-3-yl)-4-[1,1,2-trifluoro-2-(trifluoromethoxy)ethoxy]-1H-pyrazole-3-carboxamide] | ≥ 50
CC(C)(C)CCOc1cn(-c2cccnc2)nc1C(N)=O [Compound A-0017, 4-(3,3-dimethylbutoxy)-1-(pyridine-3-yl)-1H-pyrazole-3-carboxamide] | ≥ 50
NC(=O)c1nn(-c2cccnc2)cc1OCc1ccccc1 [Compound A-0240, 4-benzyloxy-1-(pyridine-3-yl)-1H-pyrazole-3-carboxamide] | ≥ 50
NC(=O)c1nn(-c2cccnc2)cc1OCC(F)(F)C(F)(F)F [Compound A-0044, 4-(2,2,3,3,3-pentafluoropropoxy)-1-(pyridine-3-yl)-1H-pyrazole-3-carboxamide] | ≥ 50
NC(=S)c1nn(-c2cccnc2)cc1OC(F)(F)C(F)OC(F)(F)F (centres unmarked) [Compound A-5436, 1-(pyridine-3-yl)-4-[1,1,2-trifluoro-2-(trifluoromethoxy)ethoxy]-1H-pyrazole-3-carbothioamide] | ≥ 50
NC(=O)c1nn(-c2cccnc2)cc1OC(F)(F)C(F)OC(F)(F)F (centres unmarked) [Compound A-0071, 1-(pyridine-3-yl)-4-[1,1,2-trifluoro-2-(trifluoromethoxy)ethoxy]-1H-pyrazole-3-carboxamide] | ≥ 50
NC(=O)c1nn(-c2ccc[n+]([O-])c2)cc1OC(F)(F)C(F)OC(F)(F)F (centres unmarked) [Compound A-5510, 3-(3-carbamoyl-4-[1,1,2-trifluoro-2-(trifluoromethoxy)ethoxy]-1H-pyrazole-1-yl)pyridine-1-oxide] | ≥ 50
